Experiments:
[1] = system: human gastric cancer cell line MGC-803; experiment: MTT antiproliferation assay, MGC-803 cells; type: cell-based; details: 48 h incubation, mean ± SD of triplicate experiments
Method: (§1) The human gastric cancer cell line MGC-803 and human normal gastric epithelial cell line GES-1 were cultured in DMEM containing penicillin (100 U/mL), streptomycin (100 μg/mL), and 10% FBS at 37 °C with 5% CO2. Cells that used in experiments were passaged at least three times.
(§2) Cells were seeded in 96-well plates at a density of 5 × 10^4/well and cultured at 37 °C with 5% CO2 for 24 h. And then, compounds (1–5) in various concentrations were introduced with incubation for another 48 h. Finally, 10 μL MTT (5 mg/mL) was added to each well. After 4 h incubation, the medium was removed and 150 μL DMSO was added. Absorbance was read on a Microplate Reader at 570 nm (Bio Tek, Thenceforth, USA) (Li et al. [2014]). The MTT assay aims to evaluate the antiproliferative effects of the test compounds in MGC-803 cells and the cytotoxic effects in GES-1 cells.

[2] = system: human normal gastric epithelial cell line GES-1; experiment: MTT cytotoxicity assay, GES-1 cells; type: cell-based; details: GES1, 48 h incubation, mean ± SD of triplicate experiments
Method: as §1, §2

MGC-803 cells = experiment: Annexin V-FITC/PI apoptosis assay by flow cytometry; type: cell-based, human; details: MGC-803 cells, 1.0, 2.0, 4.0 μM, 24 h, compared with the control group
Method: The apoptosis effect of 2′-Z auraptene A (2) in MGC-803 cells was examined using the Annexin V-FITC/PI detection kit, according to the description of previously reported (Bakar et al. [2016]). Briefly, cells were seeded and treated with compound 2 (0, 1.0, 2.0, 4.0 μM) for 24 h. Cells were harvested and washed twice with cold PBS before incubating with annexin V and PI for 30 min in dark. And then the stained cells were detected and analyzed on FACS Calibur flow cytometry.

[3] = system: Bax, Bcl-2 and cleaved caspase-3 in MGC-803 cells; experiment: Western blot of apoptosis-related proteins; type: cell-based, human; details: MGC-803 cells, 1.0, 2.0, 4.0 μM, 24 h
Method: The detection of levels of apotosis-related proteins in MGC-803 cells was performed according to the reported western blot method (Zhang et al. [2015a]). Briefly, cells were treated with compound 2 (0, 1.0, 2.0, 4.0 μM) for 24 h and then harvested to detect the protein concentration using the BCA method. Total cellular protein was separated by an SDS/PAGE gel and transferred onto PVDF membranes using a semidry electroblotter. The membrane was blocked with non-fat milk solution (5%) for 1 h, and incubated subsequently with primary antibody at 4 °C overnight. Then TBST was used to wash the primary antibody and incubated with secondary antibody for 1 h at room temperature. Protein bands were visualized by enhanced chemiluminescence (ECL) and β-actin was used as a normalizing control.

[4] = Solubility in aqueous media; type: physicochemical; details: thermodynamic equilibrating conditions, compared with 2′-Z auraptene

With `CC(C)=CCC/C(C)=C\COc1ccc2ccc(=O)oc2c1` [Compound 1, (Z)-7-((3′,7′-dimethylocta-2′,6′-dien-1′-yl)oxy)-2H-chromen-2-one] the IC50 [1] was 10.4 ± 0.86 µM and the IC50 [2] was 57 ± 2.31 µM.

For `C/C(=C/COc1ccc2ccc(=O)oc2c1)CCCO` [Compound 2, 2′-Z auraptene A], the IC50 [1] was 0.78 ± 0.13 µM, the IC50 [2] was 46 ± 3.11 µM and the cellular apoptotic rates (MGC-803 cells) was “increased significantly in a dose-dependent manner”. The “level of Bax protein” value [3] was “increase”, the “level of Bcl-2 protein” value [3] was “reduction” and the “level of cleaved caspase-3 protein” value [3] was “increase”. For the same molecule, the “limitation of solubility in aqueous media” value [4] was “improved”.

In the case of `C/C(=C/CC/C(C)=C\COc1ccc2ccc(=O)oc2c1)CO` [Compound 3, 7-(((2′Z,6′Z)-9′-hydroxy-3′,7′-dimethylocta-2′,6′-dien-1′-yl)oxy)-2H-chromen-2-one], the IC50 [1] is reported as 4.75 ± 1.02 µM and the IC50 [2] is reported as 25.6 ± 2.12 µM.

For `C/C(=C/CC(O)/C(C)=C\COc1ccc2ccc(=O)oc2c1)CO` (stereo not drawn) [Compound 4, 7-(((2′Z,6′Z)-4′,9′-hydroxy-3′,7′-dimethylocta-2′,6′-dien-1′-yl)oxy)-2H-chromen-2-one], the IC50 [1] was 6.78 ± 2.06 µM and the IC50 [2] was 33.8 ± 1.46 µM.

`C/C(=C/C(O)C/C(C)=C\COc1ccc2ccc(=O)oc2c1)CO` (stereo not drawn) [Compound 5, 7-(((2′Z,6′Z)-5′,9′-hydroxy-3′,7′-dimethylocta-2′,6′-dien-1′-yl)oxy)-2H-chromen-2-one] gave an IC50 [1] of 10.8 ± 1.83 µM and an IC50 [2] of 35.5 ± 2.21 µM.

Reference: PMC6028838, “A new terpene coumarin microbial transformed by Mucor polymorphosporus induces apoptosis of human gastric cancer cell line MGC-803” (Archives of Pharmacal Research, 2018)
